# Earlier results in patent US20050165041A1, “Combination for the treatment of airway disorders” (Altana Pharma AG, priority 2002, published 2005).
# Assays:
# [1] = combination with theophyllin
# HCl-induced lung lesions = conditions: rats
# [2] = 8-week double-blind, placebo-controlled crossover study; sole medication
pharmacokinetic interaction with theophyllin [1],Structure (SMILES),effect on HCl-induced lung lesions (HCl-induced lung lesions),nocturnal asthma symptoms [2]
lack of pharmacokinetic interaction,Cc1c(OCC(F)(F)F)ccnc1C[S+]([O-])c1nc2ccccc2[nH]1 (stereo not shown) [lansoprazole],–,–
lack of pharmacokinetic interaction,"COc1ccnc(C[S+]([O-])c2nc3ccc(OC(F)F)cc3[nH]2)c1OC (stereo not shown) [pantoprazole, 5-difluoromethoxy-2-[(3,4-dimethoxy-2-pyridinyl)methylsulphinyl]-1H-benzimidazole]",–,–
–,"COc1ccc2[nH]c([S+]([O-])Cc3ncc(C)c(OC)c3C)nc2c1 (stereo not shown) [omeprazole, 5-methoxy-2-[(4-methoxy-3,5-dimethyl-2-pyridinyl)methylsulphinyl]-1H-benzimidazole]",beneficial effect,reduction in nocturnal asthma symptoms
